In assay [1] the target is T1, recombinant human Dopamine Subtype D2s receptors (Homo sapiens, UniProt P14416).
T1 construct: purchased Perkin Elmer
Kind of assay: Dopamine D2 selectivity assay, [3H]-spiperone binding to membranes. As to conditions: inhibition of [3H]-spiperone binding, read-out: D2 bind pIC50 (converted). An outline of the steps:
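Human D2s receptor membranes incubated 2 h at room temperature with 0.16 nM [3H]-spiperone and test compound in HEPES buffer pH 7.4 (120 mM NaCl, 0.1% gelatin). Non-specific binding defined with 10 μM haloperidol; filter-bound radioactivity counted, pIC50 from four-parameter logistic fit.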

The target in assay [2] is T2, recombinant human adrenergic beta 1 receptors (Homo sapiens, UniProt P08588).
T2 construct: purchased Euroscreen
Kind of assay: Adrenergic β1 selectivity assay, [125I]-Iodocyanopindolol binding to membranes. The note with it: inhibition of [125I]-Iodocyanopindolol binding, read-out: β1 bind pIC50 (converted). An outline of the steps:
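Displacement of [^125I]-Iodocyanopindolol (0.036 nM final) from human β1 receptor membranes, 2 hours at room temperature, pH 7.4 HEPES/EDTA/NaCl buffer. After filtration, scintillation counting; NSB set with 10 μM propranolol and subtracted. Four-parameter logistic fitting gave pIC50.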

T2 sequence (P08588 whole entry): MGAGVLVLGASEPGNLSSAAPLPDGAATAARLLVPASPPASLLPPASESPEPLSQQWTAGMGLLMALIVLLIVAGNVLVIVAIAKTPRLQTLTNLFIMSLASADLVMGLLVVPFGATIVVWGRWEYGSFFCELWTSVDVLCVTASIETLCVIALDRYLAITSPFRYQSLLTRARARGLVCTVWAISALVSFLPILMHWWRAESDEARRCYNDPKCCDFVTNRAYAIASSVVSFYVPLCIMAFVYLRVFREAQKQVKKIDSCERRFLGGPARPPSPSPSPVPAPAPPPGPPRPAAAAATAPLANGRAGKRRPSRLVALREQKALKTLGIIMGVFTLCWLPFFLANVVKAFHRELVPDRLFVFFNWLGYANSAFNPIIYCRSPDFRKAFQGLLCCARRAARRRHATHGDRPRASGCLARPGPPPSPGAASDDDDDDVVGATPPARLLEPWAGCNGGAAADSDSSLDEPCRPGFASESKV
T1 sequence (P14416 1-414 isoform P14416-2): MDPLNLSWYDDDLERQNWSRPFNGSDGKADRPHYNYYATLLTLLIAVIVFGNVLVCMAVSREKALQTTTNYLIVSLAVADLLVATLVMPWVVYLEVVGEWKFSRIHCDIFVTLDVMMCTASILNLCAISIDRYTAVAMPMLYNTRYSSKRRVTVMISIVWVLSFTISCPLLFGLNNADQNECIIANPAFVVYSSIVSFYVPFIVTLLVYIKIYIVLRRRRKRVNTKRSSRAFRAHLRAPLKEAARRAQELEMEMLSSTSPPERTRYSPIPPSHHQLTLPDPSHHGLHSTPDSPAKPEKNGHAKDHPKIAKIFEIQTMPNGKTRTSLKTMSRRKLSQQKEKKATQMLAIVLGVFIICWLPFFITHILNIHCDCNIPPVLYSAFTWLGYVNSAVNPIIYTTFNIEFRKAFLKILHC

`O=C1COc2c(CCNCCN(C(=O)CCNCCc3ccc(Cl)cc3)C3CCCCC3)ccc(O)c2N1` [Example 32, 3-(4-Chlorophenethylamino)-N-cyclohexyl-N-(2-(2-(5-hydroxy-3-oxo-3,4-dihydro-2H-benzo[b][1,4]oxazin-8-yl)ethylamino)ethyl)propanamide bis(trifluoroacetate)]: the results for the IC50 in assay [1] and in assay [2] were 200 nM and 2000 nM, respectively.
The like results for `O=C1COc2c(CCNCCN(C(=O)CCNCCc3cc(F)cc(F)c3)C3CCCCC3)ccc(O)c2N1` [Example 35, N-Cyclohexyl-3-(3,5-difluorophenethylamino)-N-(2-(2-(5-hydroxy-3-oxo-3,4-dihydro-2H-benzo[b][1,4]oxazin-8-yl)ethylamino)ethyl)propanamide bis(trifluoroacetate)] were, in that order, 251 nM and more than 10000 nM.
Taken in the same sequence, the figures for `O=C1COc2c(CCNCCN(C(=O)CCNCCc3cccc(F)c3F)C3CCCCC3)ccc(O)c2N1` [Example 36, N-Cyclohexyl-3-(2,3-difluorophenethylamino)-N-(2-(2-(5-hydroxy-3-oxo-3,4-dihydro-2H-benzo[b][1,4]oxazin-8-yl)ethylamino)ethyl)propanamide bis(trifluoroacetate)] were 631 nM and 3160 nM.
The like results for `O=C1COc2c(CCNCCN(C(=O)CCNCCc3ccc(F)c(Cl)c3)C3CCCCC3)ccc(O)c2N1` [Example 37, 3-(3-Chloro-4-fluorophenethylamino)-N-cyclohexyl-N-(2-(2-(5-hydroxy-3-oxo-3,4-dihydro-2H-benzo[b][1,4]oxazin-8-yl)ethylamino)ethyl)propanamide bis(trifluoroacetate)] were, in that order, 100 nM and 1000 nM.
For the molecule `O=C1COc2c(CCNCCN(C(=O)CCNCCc3cc(F)ccc3F)C3CCCCC3)ccc(O)c2N1` [Example 38, N-Cyclohexyl-3-(2,5-difluorophenethylamino)-N-(2-(2-(5-hydroxy-3-oxo-3,4-dihydro-2H-benzo[b][1,4]oxazin-8-yl)ethylamino)ethyl)propanamide bis(trifluoroacetate)], the results for the IC50 in assay [1] and in assay [2] were 126 nM and more than 5010 nM, respectively.
The like results for `O=C1COc2c(CCNCCN(C(=O)CCNCCc3cccc(Cl)c3F)C3CCCCC3)ccc(O)c2N1` [Example 39, 3-(3-Chloro-2-fluorophenethylamino)-N-cyclohexyl-N-(2-(2-(5-hydroxy-3-oxo-3,4-dihydro-2H-benzo[b][1,4]oxazin-8-yl)ethylamino)ethyl)propanamide bis(trifluoroacetate)] were, in that order, 100 nM and 1260 nM.
`Cc1cc(CCNCCC(=O)N(CCNCCc2ccc(O)c3c2OCC(=O)N3)C2CCCCC2)ccc1F` [Example 40, N-Cyclohexyl-3-(4-fluoro-3-methylphenethylamino)-N-(2-(2-(5-hydroxy-3-oxo-3,4-dihydro-2H-benzo[b][1,4]oxazin-8-yl)ethylamino)ethyl)propanamide bis(trifluoroacetate)]: the IC50 is 398 nM in assay [1] and more than 7940 nM in assay [2].
For the molecule `O=C1COc2c(CCNCCN(C(=O)CCNCCc3cc(F)cc(Cl)c3)C3CCCCC3)ccc(O)c2N1` [Example 41, 3-(3-Chloro-5-fluorophenethylamino)-N-cyclohexyl-N-(2-(2-(5-hydroxy-3-oxo-3,4-dihydro-2H-benzo[b][1,4]oxazin-8-yl)ethylamino)ethyl)propanamide (trifluoroacetate)], the IC50 in assay [1] was 200 nM; in assay [2] it was more than 7940 nM.
Taken in the same sequence, the figures for `O=C1COc2c(CCNCCN(C(=O)CCNCCc3ccc(F)c(F)c3)C3CCCCC3)ccc(O)c2N1` [Example 42, N-Cyclohexyl-3-(3,4-difluorophenethylamino)-N-(2-(2-(5-hydroxy-3-oxo-3,4-dihydro-2H-benzo[b][1,4]oxazin-8-yl)ethylamino)ethyl)propanamide bis(trifluoroacetate)] were 316 nM and 3160 nM.
Taken in the same sequence, the figures for `O=C1COc2c(CCNCCN(C(=O)CCNCCc3ccc(C(=O)O)cc3)C3CCCCC3)ccc(O)c2N1` [Example 43, 4-(2-(3-(Cyclohexyl(2-(2-(5-hydroxy-3-oxo-3,4-dihydro-2H-benzo[b][1,4]oxazin-8-yl)ethylamino)ethyl)amino)-3-oxopropylamino)ethyl)benzoic acid bis(trifluoroacetate)] were more than 10000 nM and more than 10000 nM.
Taken in the same sequence, the figures for `CCCC[C@@H](C)N(CCNCCc1ccc(O)c2c1OCC(=O)N2)C(=O)CCNCCc1cccc(Cl)c1` [Example 44, (R)-3-(3-Chlorophenethylamino)-N-(hexan-2-yl)-N-(2-(2-(5-hydroxy-3-oxo-3,4-dihydro-2H-benzo[b][1,4]oxazin-8-yl)ethylamino)ethyl)propanamide bis(trifluoroacetate)] were 79.4 nM and 1260 nM.
On to `CCCC[C@@H](C)N(CCNCCc1ccc(O)c2c1OCC(=O)N2)C(=O)CCNCCc1ccc(Cl)cc1` [Example 45, (R)-3-(4-Chlorophenethylamino)-N-(hexan-2-yl)-N-(2-(2-(5-hydroxy-3-oxo-3,4-dihydro-2H-benzo[b][1,4]oxazin-8-yl)ethylamino)ethyl)propanamide bis(trifluoroacetate)], for which the IC50 in assay [1] is 79.4 nM; in assay [2] it was 1260 nM.
Taken in the same sequence, the figures for `CCCC[C@@H](C)N(CCNCCc1ccc(O)c2c1OCC(=O)N2)C(=O)CCNCCc1ccccc1Cl` [Example 46, (R)-3-(2-Chlorophenethylamino)-N-(hexan-2-yl)-N-(2-(2-(5-hydroxy-3-oxo-3,4-dihydro-2H-benzo[b][1,4]oxazin-8-yl)ethylamino)ethyl)propanamide bis(trifluoroacetate)] were 15.8 nM and 1580 nM.
The like results for `CCCC[C@@H](C)N(CCNCCc1ccc(O)c2c1OCC(=O)N2)C(=O)CCNCCc1ccc(F)c(C)c1` [Example 47, (R)-3-(4-Fluoro-3-methylphenethylamino)-N-(hexan-2-yl)-N-(2-(2-(5-hydroxy-3-oxo-3,4-dihydro-2H-benzo[b][1,4]oxazin-8-yl)ethylamino)ethyl)propanamide bis(trifluoroacetate)] were, in that order, 50.1 nM and 631 nM.
Taken in the same sequence, the figures for `CCCC[C@@H](C)N(CCNCCc1ccc(O)c2c1OCC(=O)N2)C(=O)CCNCCc1ccc(F)c(Cl)c1` [Example 48, (R)-3-(3-Chloro-4-fluorophenethylamino)-N-(hexan-2-yl)-N-(2-(2-(5-hydroxy-3-oxo-3,4-dihydro-2H-benzo[b][1,4]oxazin-8-yl)ethylamino)ethyl)propanamide bis(trifluoroacetate)] were 79.4 nM and 794 nM.
In the case of `CCCC[C@@H](C)N(CCNCCc1ccc(O)c2c1OCC(=O)N2)C(=O)CCNCCc1ccc(Cl)s1` [Example 49, (R)-3-(2-(5-Chlorothiophen-2-yl)ethylamino)-N-(hexan-2-yl)-N-(2-(2-(5-hydroxy-3-oxo-3,4-dihydro-2H-benzo[b][1,4]oxazin-8-yl)ethylamino)ethyl)propanamide bis(trifluoroacetate)], the IC50 is 63.1 nM in assay [1] and 1000 nM in assay [2].
Taken in the same sequence, the figures for `CCCC[C@@H](C)N(CCNCCc1ccc(O)c2c1OCC(=O)N2)C(=O)CCNCCc1cc(F)cc(Cl)c1` [Example 50, (R)-3-(3-Chloro-5-fluorophenethylamino)-N-(hexan-2-yl)-N-(2-(2-(5-hydroxy-3-oxo-3,4-dihydro-2H-benzo[b][1,4]oxazin-8-yl)ethylamino)ethyl)propanamide bis(trifluoroacetate)] were 31.6 nM and 1260 nM.

Source of the values: patent US20100056508A1, “AMINE DERIVATIVES AND THEIR USE IN BETA-2-ADRENORECEPTOR MEDIATED DISEASES” (ASTRAZENECA AB, priority 2006, published 2010).
